Assay results reported in the NIST ThermoML archive (doi:10.1021/je900437b).

Assay: xn = mol fraction of the nth substance listed
Conditions: 101 kPa, Liquid; for speed of sound: Sing-around technique in a fixed-path interferometer; for mass density: Vibrating tube method

OCCN(CCO)CCO [triethanolamine] + NCCO
Conditions	mass density [kg/m3]	speed of sound [m/s]
298.15 K, x2 = 0	1120.82	1610.5
298.15 K, x2 = 0.1159	1116.38	1625.2
298.15 K, x2 = 0.2165	1111.37	1637.8
298.15 K, x2 = 0.3017	1106.52	1648.4
298.15 K, x2 = 0.3788	1101.52	1658.1
298.15 K, x2 = 0.4492	1096.35	1666.8
298.15 K, x2 = 0.5121	1091.14	1674.3
298.15 K, x2 = 0.6192	1080.56	1686.4
298.15 K, x2 = 0.7099	1069.5	1695.9
298.15 K, x2 = 0.7849	1058.49	1702.7
298.15 K, x2 = 0.8509	1046.99	1708
298.15 K, x2 = 0.907	1035.53	1712.1
298.15 K, x2 = 0.9561	1023.91	1715.6
303.15 K, x2 = 0	1118.06	1600.5
303.15 K, x2 = 0.1159	1113.44	1615.2
303.15 K, x2 = 0.2165	1108.35	1628
303.15 K, x2 = 0.3017	1103.4	1638.7
303.15 K, x2 = 0.3788	1098.32	1648.3
303.15 K, x2 = 0.4492	1093.05	1656.7
303.15 K, x2 = 0.5121	1087.76	1663.9
303.15 K, x2 = 0.6192	1077.07	1675.3
303.15 K, x2 = 0.7099	1065.88	1683.4
303.15 K, x2 = 0.7849	1054.74	1689.1
303.15 K, x2 = 0.8509	1043.15	1693.5
303.15 K, x2 = 0.907	1031.61	1697.1
303.15 K, x2 = 0.9561	1019.93	1700.3
308.15 K, x2 = 0	1115.26	1595.5
308.15 K, x2 = 0.1159	1110.42	1610
308.15 K, x2 = 0.2165	1105.26	1622.1
308.15 K, x2 = 0.3017	1100.25	1632
308.15 K, x2 = 0.3788	1095.08	1640.8
308.15 K, x2 = 0.4492	1089.75	1648.6
308.15 K, x2 = 0.5121	1084.39	1655.1
308.15 K, x2 = 0.6192	1073.56	1665
308.15 K, x2 = 0.7099	1062.26	1671.8
308.15 K, x2 = 0.7849	1051.01	1676.7
308.15 K, x2 = 0.8509	1039.31	1680.6
308.15 K, x2 = 0.907	1027.72	1683.5
308.15 K, x2 = 0.9561	1015.99	1685.9
313.15 K, x2 = 0	1112.4	1587
313.15 K, x2 = 0.1159	1107.47	1601.8
313.15 K, x2 = 0.2165	1102.16	1613.9
313.15 K, x2 = 0.3017	1097.05	1623.6
313.15 K, x2 = 0.3788	1091.8	1631.9
313.15 K, x2 = 0.4492	1086.4	1639.2
313.15 K, x2 = 0.5121	1080.99	1645.2
313.15 K, x2 = 0.6192	1070.01	1654.6
313.15 K, x2 = 0.7099	1058.62	1661.1
313.15 K, x2 = 0.7849	1047.27	1665.1
313.15 K, x2 = 0.8509	1035.49	1667.6
313.15 K, x2 = 0.907	1023.83	1669
313.15 K, x2 = 0.9561	1012.03	1670
318.15 K, x2 = 0	1109.6	1578.8
318.15 K, x2 = 0.1159	1104.53	1593.8
318.15 K, x2 = 0.2165	1099.15	1605.9
318.15 K, x2 = 0.3017	1093.95	1614.8
318.15 K, x2 = 0.3788	1088.58	1622.6
318.15 K, x2 = 0.4492	1083.06	1629.4
318.15 K, x2 = 0.5121	1077.57	1635.1
318.15 K, x2 = 0.6192	1066.47	1643.9
318.15 K, x2 = 0.7099	1054.94	1649.5
318.15 K, x2 = 0.7849	1043.54	1652.8
318.15 K, x2 = 0.8509	1031.7	1654.6
318.15 K, x2 = 0.907	1019.92	1655.3
318.15 K, x2 = 0.9561	1008.07	1655.3
323.15 K, x2 = 0	1106.78	1570.6
323.15 K, x2 = 0.1159	1101.56	1585.9
323.15 K, x2 = 0.2165	1096.03	1597.2
323.15 K, x2 = 0.3017	1090.73	1605.9
323.15 K, x2 = 0.3788	1085.31	1613.5
323.15 K, x2 = 0.4492	1079.76	1620.1
323.15 K, x2 = 0.5121	1074.18	1625.6
323.15 K, x2 = 0.6192	1062.92	1633.2
323.15 K, x2 = 0.7099	1051.26	1637.5
323.15 K, x2 = 0.7849	1039.74	1639.8
323.15 K, x2 = 0.8509	1027.82	1641.3
323.15 K, x2 = 0.907	1016	1641.8
323.15 K, x2 = 0.9561	1004.09	1641
